Common to all, as to format: functional, cell-based
For assay [1], the target named is T1, Taste receptor type 2 member 1 (Homo sapiens) (UniProt Q9NYW7).
T1 sequence (whole entry): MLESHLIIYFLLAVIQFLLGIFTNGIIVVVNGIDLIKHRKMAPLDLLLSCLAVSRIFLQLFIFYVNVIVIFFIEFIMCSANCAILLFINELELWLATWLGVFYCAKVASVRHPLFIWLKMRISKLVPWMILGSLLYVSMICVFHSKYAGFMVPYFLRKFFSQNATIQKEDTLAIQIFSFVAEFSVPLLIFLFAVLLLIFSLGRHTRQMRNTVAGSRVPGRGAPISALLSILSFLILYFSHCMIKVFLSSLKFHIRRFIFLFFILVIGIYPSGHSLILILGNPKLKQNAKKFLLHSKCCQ
Briefly: Agonist activity at human TAS2R1 expressed in HEK293T cells co-expressing Galpha15 assessed as increase in intracellular calcium level at 20 mM by Calcium-3 dye based fluorescence assay relative to control.

Assay [2] addresses T2, Taste receptor type 2 member 7 (Homo sapiens) (UniProt Q9NYW3).
T2 sequence (whole entry): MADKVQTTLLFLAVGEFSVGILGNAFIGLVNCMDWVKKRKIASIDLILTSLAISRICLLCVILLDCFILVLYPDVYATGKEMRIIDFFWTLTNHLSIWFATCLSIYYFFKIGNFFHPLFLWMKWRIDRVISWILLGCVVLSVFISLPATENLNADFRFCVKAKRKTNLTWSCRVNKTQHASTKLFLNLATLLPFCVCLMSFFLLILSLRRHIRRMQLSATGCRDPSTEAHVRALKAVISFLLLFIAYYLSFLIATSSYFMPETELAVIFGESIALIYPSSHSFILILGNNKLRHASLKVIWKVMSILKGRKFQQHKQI
In words: Agonist activity at human TAS2R7 expressed in HEK293T cells co-expressing Galpha15 assessed as increase in intracellular calcium level at 20 mM by Calcium-3 dye based fluorescence assay relative to control. On the technique in general: Calcium flux is commonly read through the fluorescence of an indicator in the cells.

In assay [3] the target is T3, Taste receptor type 2 member 50 (Homo sapiens) (UniProt P59544).
T3 sequence (whole entry): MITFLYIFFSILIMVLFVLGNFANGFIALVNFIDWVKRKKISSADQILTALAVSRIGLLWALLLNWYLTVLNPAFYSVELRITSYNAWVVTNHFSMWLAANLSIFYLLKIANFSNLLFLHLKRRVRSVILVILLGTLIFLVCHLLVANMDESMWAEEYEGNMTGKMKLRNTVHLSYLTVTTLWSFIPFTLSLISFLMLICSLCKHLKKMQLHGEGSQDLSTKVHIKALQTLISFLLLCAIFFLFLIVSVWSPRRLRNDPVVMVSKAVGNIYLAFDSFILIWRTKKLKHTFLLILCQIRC
In words: Agonist activity at human TAS2R50 expressed in HEK293T cells co-expressing Galpha15 assessed as increase in intracellular calcium level at 20 mM by Calcium-3 dye based fluorescence assay relative to control.

The target in assay [4] is T4, Taste receptor type 2 member 10 (Homo sapiens) (UniProt Q9NYW0).
T4 sequence (whole entry): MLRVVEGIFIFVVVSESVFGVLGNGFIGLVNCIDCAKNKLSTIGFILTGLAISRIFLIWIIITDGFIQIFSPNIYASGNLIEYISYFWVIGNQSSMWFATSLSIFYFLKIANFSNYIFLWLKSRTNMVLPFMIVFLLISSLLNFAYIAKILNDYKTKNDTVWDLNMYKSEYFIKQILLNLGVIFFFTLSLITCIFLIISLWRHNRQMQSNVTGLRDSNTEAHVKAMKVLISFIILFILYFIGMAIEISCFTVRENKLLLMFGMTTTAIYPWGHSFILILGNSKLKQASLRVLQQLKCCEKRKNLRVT
Briefly: Agonist activity at human TAS2R10 expressed in HEK293T cells co-expressing Galpha15 assessed as increase in intracellular calcium level at 20 mM by Calcium-3 dye based fluorescence assay relative to control.

Assay [5] deals with T5, Taste receptor type 2 member 30 (Homo sapiens) (UniProt P59541).
T5 sequence (whole entry): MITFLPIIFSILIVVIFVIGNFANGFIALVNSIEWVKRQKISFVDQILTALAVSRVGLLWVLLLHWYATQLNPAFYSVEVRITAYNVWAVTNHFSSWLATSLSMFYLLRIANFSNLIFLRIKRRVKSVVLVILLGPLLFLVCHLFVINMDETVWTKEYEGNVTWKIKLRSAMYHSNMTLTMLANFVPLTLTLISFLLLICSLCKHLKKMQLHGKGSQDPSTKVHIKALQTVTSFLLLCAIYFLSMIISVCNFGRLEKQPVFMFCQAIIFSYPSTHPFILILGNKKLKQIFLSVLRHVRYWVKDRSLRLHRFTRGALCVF
Briefly: Agonist activity at human TAS2R47 expressed in HEK293T cells co-expressing Galpha15 assessed as increase in intracellular calcium level at 20 mM by Calcium-3 dye based fluorescence assay relative to control.

The target of assay [6] is T6, Taste receptor type 2 member 8 (Homo sapiens) (UniProt Q9NYW2).
T6 sequence (whole entry): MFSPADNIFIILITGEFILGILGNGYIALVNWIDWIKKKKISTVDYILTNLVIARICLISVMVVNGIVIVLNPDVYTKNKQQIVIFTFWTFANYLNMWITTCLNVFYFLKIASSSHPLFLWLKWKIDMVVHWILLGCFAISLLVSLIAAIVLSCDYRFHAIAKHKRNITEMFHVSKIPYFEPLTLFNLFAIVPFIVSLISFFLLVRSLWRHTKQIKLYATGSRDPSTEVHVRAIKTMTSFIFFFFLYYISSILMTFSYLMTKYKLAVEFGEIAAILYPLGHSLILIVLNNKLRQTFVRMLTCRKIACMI
Briefly: Agonist activity at human TAS2R8 expressed in HEK293T cells co-expressing Galpha15 assessed as increase in intracellular calcium level at 20 mM by Calcium-3 dye based fluorescence assay relative to control.

For assay [7], the target named is T7, Taste receptor type 2 member 16 (Homo sapiens) (UniProt Q9NYV7).
T7 sequence (whole entry): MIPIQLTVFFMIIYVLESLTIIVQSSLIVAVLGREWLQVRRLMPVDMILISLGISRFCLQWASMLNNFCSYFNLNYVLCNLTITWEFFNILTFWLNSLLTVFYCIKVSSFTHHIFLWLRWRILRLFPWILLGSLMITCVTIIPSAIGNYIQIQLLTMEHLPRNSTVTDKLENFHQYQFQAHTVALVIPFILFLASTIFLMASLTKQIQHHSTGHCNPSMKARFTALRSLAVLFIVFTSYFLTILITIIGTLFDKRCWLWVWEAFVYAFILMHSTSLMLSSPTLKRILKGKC
Briefly: Agonist activity at human TAS2R16 expressed in HEK293T cells co-expressing Galpha15 assessed as increase in intracellular calcium level at 20 mM by Calcium-3 dye based fluorescence assay relative to control.

Each structure is given as a SMILES string.

Activity data for three compounds are collected here from ChEMBL document CHEMBL4419163, “Assays for identifying compounds that modulate bitter taste” (2014).

For `CC1=CC(=O)NS(=O)(=O)O1`, the Activity in assay [1] is over 40%; in assay [2] it was under 40%; in assay [3] it was under 40%; in assay [4] it was under 40%; in assay [5], under 40%; in assay [6] it was under 40%. The Activity in assay [7] was over 40%.

For `[Cl-].[K+]` [POTASSIUM CHLORIDE], the Activity in assay [1], in assay [2], in assay [3], in assay [4], in assay [5] and in assay [6] was under 40% in each case. The Activity in assay [7] is under 40%.

As to `CC(O)C(=O)[O-].[K+]` (stereo unspecified), the Activity in assay [1], in assay [2], in assay [3], in assay [4], in assay [5] and in assay [6] was under 40% in each case. Moreover, in assay [7], the Activity is under 40%.
